Data as given in patent US20230255939A1, “Antimicrobial Agent for Non-Human Animal” (ISHIHARA SANGYO KAISHA, LTD, priority 2020, published 2023).

Test system: Malassezia pachydermatis (ATCC14522 strain)
Test: Malassezia otitis externa effect test (dog) (Test Example 3)
Format: in vivo, dog (Beagle)
Design: Total score (redness, earwax, itching, rash) Immediately before treatment / Total score (redness, earwax, itching, rash) 7 Days after treatment: scale not given here
Settings: for Microbial count (cfu/ml) 7 Days after treatment: 500 ppm agent solution for 1 minute; for Microbial count (cfu/ml) Immediately before treatment: baseline before 500 ppm agent solution; for Total score (redness, earwax, itching, rash) 7 Days after treatment: 5 mL of 500 ppm agent solution for 1 minute; for Improvement rate (%) of microbial count / Improvement rate (%) of symptom total score: 500 ppm for 1 minute, 7 days after treatment; for Total score (redness, earwax, itching, rash) Immediately before treatment: baseline 7 days after inoculation, before 500 ppm agent solution
Description: Test Example 3: Malassezia Otitis Externa Effect Test (Dog) Test Variety: Beagle (19 to 20-Month-Old)
Test Microbial Strain: Malassezia Pachydermatis (ATCC14522 Strain)
A colony of the Malassezia microbe pre-cultured (7 days, 30° C.) on a Sabouraud agar medium was suspended in sterilized physiological saline (microbial concentration of 1.0 × 10^6 cells/mL), and 0.1 mL of the resulting suspension was inoculated into both ears of the test animal. 7 Days after the inoculation, both ears were filled with 5 mL of an agent solution (sterilized physiological saline solution supplemented with 5% DMSO) prepared to have a concentration of the test compound of 500 ppm, and after 1 minute, thoroughly washed with sterilized physiological saline solution.
At the same time, the number of the Malassezia microbe present inside the ears of the sample was also investigated by the following method.
The surface of the ear canal was scraped three times using a cotton swab to collect the microbe, and the collected microbe was suspended in 1 mL of PBS (containing 8 g of sodium chloride, 2.9 g of disodium hydrogen phosphate, 0.2 g of potassium chloride, and 0.2 g of potassium dihydrogen phosphate in 1000 mL) supplemented with 1% v/v of Tween80 (polyoxyethylene sorbitan monooleate: manufactured by Kanto Chemical Co., Ltd.) together with the cotton swab. The resulting suspension was serially diluted 10-fold with the PBS, and 0.1 mL thereof was applied to a CHROMagar Malassezia/Candida medium (trade name; peptone, special enzyme substrate mixture, chloramphenicol, olive oil, agar) and cultured at 30° C. for 4 days. After that, the colonies having a pink to purple color were counted, the microbial count score was calculated, and the improvement rate was determined.

Structure (SMILES) | Microbial count (cfu/ml) 7 Days after treatment (left ear canal swab) | Microbial count (cfu/ml) Immediately before treatment (left ear canal swab) | Total score (redness, earwax, itching, rash) 7 Days after treatment (left ear) | Improvement rate (%) of microbial count (left ear) | Improvement rate (%) of symptom total score (left ear) | Total score (redness, earwax, itching, rash) Immediately before treatment (left ear) | Microbial count (cfu/ml) 7 Days after treatment (right ear canal swab) | Microbial count (cfu/ml) Immediately before treatment (right ear canal swab) | Total score (redness, earwax, itching, rash) 7 Days after treatment (right ear) | Improvement rate (%) of microbial count (right ear) | Improvement rate (%) of symptom total score (right ear) | Total score (redness, earwax, itching, rash) Immediately before treatment (right ear)
Cc1cc(-c2nc(C#N)[nH]c2Cl)ccc1Cl [Compound No. 7, 5-chloro-4-(4-chloro-3-methylphenyl)-1H-imidazole-2-carbonitrile] | 20 cfu/ml | 480 cfu/ml | 0 | 95.8% | 100% | 3 | 30 cfu/ml | 160 cfu/ml | 0 | 81.3% | 100% | 3
Cc1ccc(-c2nc(C#N)n(O)c2Cl)cc1 [Compound No. 9, 5-chloro-1-hydroxy-4-(4-methylphenyl)-1H-imidazole-2-carbonitrile] | 20 cfu/ml | 1,100 cfu/ml | 1 | 98.2% | 67% | 3 | 30 cfu/ml | 1,600 cfu/ml | 1 | 98.1% | 67% | 3
